Measured values taken from patent US8772498B2, “Alkylamine-substituted dicyanopyridine and amino acid ester prodrugs thereof” (Bayer Intellectual Property GmbH, priority 2009, dated 2014).
Where a name gives a salt, the structure may show the parent alone.

What was measured:
[1] = Stability in buffer at various pH values; type: physicochemical
Procedure: b) Stability in Buffer at Various pH Values:
0.3 mg of the test substance is weighed into a 2 ml HPLC vial and 0.5 ml of acetonitrile or acetonitrile/DMSO (9:1) is added. The substance is dissolved by putting the sample vessel in an ultrasonic bath for about 10 seconds. Then 0.5 ml of the respective (buffer) solution is added, and the sample is again treated in the ultrasonic bath.
(Buffer) solutions employed:
pH 4: 1 liter of Millipore water is adjusted to pH 4.0 with 1 N hydrochloric acid;
pH 7.4: 90.0 g of sodium chloride, 13.61 g of potassium dihydrogen phosphate and 83.35 g of 1 N sodium hydroxide solution are made up to 1 liter with water; this solution is then further diluted 1:10 with Millipore water.
5 μl portions of the test solution are analyzed by HPLC for their content of unchanged test substance, and of active substance (A) produced, every hour over a period of 24 hours at 37° C. The percentage areas of the appropriate peaks are used for quantification.
HPLC method for Examples 41 and 44:
Agilent 1100 with DAD (G1315B), binary pump (G1312A), autosampler (G1329A), column oven (G1316A), thermostat (G1330B); column: Kromasil 100 C18, 250 mm×4 mm, 5 μm; column temperature: 30° C.; mobile phase A: water+5 ml of perchloric acid/liter, eluent B: acetonitrile; gradient: 0 min 90% A→5.0 min 40% A→18.0 min 10% A→19.0 min 10% A→21.0 min 90% A→23.0 min 90% A; flow rate: 2.0 ml/min; UV detection: 288 nm.
HPLC Method for Examples 50 and 59:
Agilent 1100 with DAD (G1315B), binary pump (G1312A), autosampler (G1329A), column oven (G1316A), thermostat (G1330B); column: Kromasil 100 C18, 125 mm×4 mm, 5 μm; column temperature: 30° C.; mobile phase A: water+5 ml of perchloric acid/liter, eluent B: acetonitrile; gradient: 0 min 90% A→5.0 min 60% A→7.0 min 60% A→10.0 min 10% A→12.0 min 10% A→14.0 min 90% A→16.0 min 90% A; flow rate: 2.0 ml/min; UV detection: 294 nm.
HPLC Method for Example 54:
Agilent 1100 with DAD (G1314A), binary pump (G1312A), autosampler (G1329A), column oven (G1316A), thermostat (G1330A); column: Kromasil 100 C18, 250 mm×4 mm, 5 μm; column temperature: 30° C.; mobile phase A: water+5 ml of perchloric acid/liter, eluent B: acetonitrile; gradient: 0 min 90% A→5.0 min 40% A→18.0 min 10% A→19.0 min 10% A→21.0 min 90% A→23.0 min 90% A; flow rate: 2.0 ml/min; UV detection: 288 nm.
The ratios of the peak areas (F) at the respective time points in relation to the peak areas at the starting time are shown in Table 2 for representative exemplary embodiments: […]

[2] = Determination of the solubility in 5% strength aqueous dextrose solution; type: physicochemical; details: for solubility at 24 h: saline or isotonic, thermodynamic from solid, room temperature
Procedure: B-8. Determination of Solubility, Stability and Liberation Behavior a) Determination of the Solubility:
The test substance is suspended in 5% strength aqueous dextrose solution. This suspension is shaken at room temperature for 24 h. After ultracentrifugation at 224 000 g for 30 min, the supernatant is diluted with DMSO and analyzed by HPLC. A two-point calibration plot of the test compound in DMSO is used for quantification.
Agilent 1100 with DAD (G1315A), quat. pump (G1311A), autosampler CTC HTS PAL, degasser (G1322A) and column thermostat (G1316A); column: Phenomenex Gemini C18, 5 μm, 50 mm×2 mm; temperature: 40° C.; eluent A: water/phosphoric acid pH 2; eluent B: acetonitrile; flow rate: 0.7 ml/min; gradient: 0-0.5 min 85% A, 15% B; ramp: 0.5-3 min 10% A, 90% B; 3-3.5 min 10% A, 90% B; ramp: 3.5-4 min 85% A, 15% B; 4-5 min 85% A, 15% B.
Agilent 1100 with DAD (G1315A), quat. pump (G1311A), autosampler CTC HTS PAL, degasser (G1322A) and column thermostat (G1316A); column: VDSoptilab Kromasil 100 C18, 3.5 μm, 60 mm×2.1 mm; temperature: 30° C.; eluent A: water+5 ml perchloric acid/I; eluent B: acetonitrile; flow rate: 0.75 ml/min; gradient: 0-0.5 min 98% A, 2% B; ramp: 0.5-4.5 min 10% A, 90% B; 4.5-6 min 10% A, 90% B; ramp: 6.5-6.7 min 98% A, 2% B; 6.7-7.5 min 98% A, 2% B.

CCCNc1nc(SCc2csc(-c3ccc(Cl)cc3)n2)c(C#N)c(-c2ccc(OCCOC(=O)[C@H](C)NC(=O)[C@@H](N)CCCCN)cc2)c1C#N [Example 54, 2-{4-(2-({(2-(4-Chlorophenyl)-1,3-thiazol-4-yl)methyl}sulfanyl)-3,5-dicyano-6-(propylamino)pyridin-4-yl)phenoxy}ethyl L-lysyl-L-alaninate bis(trifluoroacetate)]
% test substance after 4 h (F(t = 4 h) × 100/F(t = 0 h)) ([1]; pH 4, 37° C.): 98% | % test substance after 24 h (F(t = 24 h) × 100/F(t = 0 h)) ([1]; pH 4, 37° C.): 97% | % test substance after 4 h (F(t = 4 h) × 100/F(t = 0 h)) ([1]; pH 7.4, 37° C.): 29% | % test substance after 24 h (F(t = 24 h) × 100/F(t = 0 h)) ([1]; pH 7.4, 37° C.): 0% | solubility at 24 h [2]: 0.64 mg/mL

C[C@H](NC(=O)[C@@H](N)CCCN)C(=O)OCCOc1ccc(-c2c(C#N)c(SCc3csc(-c4ccc(Cl)cc4)n3)nc(N3CCCC3)c2C#N)cc1 [Example 58, 2-{4-(2-({(2-(4-Chlorophenyl)-1,3-thiazol-4-yl)methyl}sulfanyl)-3,5-dicyano-6-(pyrrolidin-1-yl)pyridin-4-yl)phenoxy}ethyl L-ornithyl-L-alaninate bis(trifluoroacetate)]
solubility at 24 h [2]: 0.47 mg/mL

CCCNc1nc(SCc2csc(-c3ccc(Cl)cc3)n2)c(C#N)c(-c2ccc(OCCO)cc2)c1C#N [Example 12]
Solubility of the active substance ([2]; result in words): below the detection limit

N#Cc1c(SCc2csc(-c3ccc(Cl)cc3)n2)nc(N2CCCC2)c(C#N)c1-c1ccc(OCCOC(=O)[C@@H](N)CCCN)cc1 [Example 59, 2-{4-(2-({(2-(4-Chlorophenyl)-1,3-thiazol-4-yl)methyl}sulfanyl)-3,5-dicyano-6-(pyrrolidin-1-yl)pyridin-4-yl)phenoxy}ethyl L-ornithinate bis(trifluoroacetate)]
% test substance after 4 h (F(t = 4 h) × 100/F(t = 0 h)) ([1]; pH 4, 37° C.): 99% | % test substance after 24 h (F(t = 24 h) × 100/F(t = 0 h)) ([1]; pH 4, 37° C.): 95% | % test substance after 4 h (F(t = 4 h) × 100/F(t = 0 h)) ([1]; pH 7.4, 37° C.): 0% | % test substance after 24 h (F(t = 24 h) × 100/F(t = 0 h)) ([1]; pH 7.4, 37° C.): 0%

CCCNc1nc(SCc2csc(-c3ccc(Cl)cc3)n2)c(C#N)c(-c2ccc(OCCOC(=O)[C@H](C)NC(=O)[C@H](C)N)cc2)c1C#N [Example 51, 2-{4-(2-({(2-(4-Chlorophenyl)-1,3-thiazol-4-yl)methyl}sulfanyl)-3,5-dicyano-6-(propylamino)pyridin-4-yl)phenoxy}ethyl L-alanyl-L-alaninate trifluoroacetate]
solubility at 24 h [2]: 0.54 mg/mL

CNc1nc(SCc2csc(-c3ccc(Cl)cc3)n2)c(C#N)c(-c2ccc(OCCOC(=O)[C@@H](N)CCCN)cc2)c1C#N [Example 52, 2-{4-(2-({(2-(4-Chlorophenyl)-1,3-thiazol-4-yl)methyl}sulfanyl)-3,5-dicyano-6-(methylamino)pyridin-4-yl)phenoxy}ethyl L-ornithinate bis(trifluoroacetate)]
solubility at 24 h [2]: 0.28 mg/mL

N#Cc1c(SCc2csc(-c3ccc(Cl)cc3)n2)nc(N2CCCC2)c(C#N)c1-c1ccc(OCCOC(=O)CCN)cc1 [Example 50, 2-{4-(2-({(2-(4-Chlorophenyl)-1,3-thiazol-4-yl)methyl}sulfanyl)-3,5-dicyano-6-(pyrrolidin-1-yl)pyridin-4-yl)phenoxy}ethyl beta-alaninate trifluoroacetate]
% test substance after 4 h (F(t = 4 h) × 100/F(t = 0 h)) ([1]; pH 4, 37° C.): 99% | % test substance after 24 h (F(t = 24 h) × 100/F(t = 0 h)) ([1]; pH 4, 37° C.): 99% | % test substance after 4 h (F(t = 4 h) × 100/F(t = 0 h)) ([1]; pH 7.4, 37° C.): 94% | % test substance after 24 h (F(t = 24 h) × 100/F(t = 0 h)) ([1]; pH 7.4, 37° C.): 78%
